Structures are written as SMILES. pIC50: −log10 of the molar value.

One experiment has as its target T1, BRD4 BD1 (Homo sapiens, UniProt O60885).
T1 construct: made in house
Put plainly: AlphaScreen binding assay, BRD4 Bromodomain 1. In a few lines:
(§1)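 Compound dilution series were mixed with His-tagged BRD4 bromodomain and biotinylated tetra-acetylated H4 (1-21) peptide at pH 7.3 (BD1 and peptide at 50 nM, BD2 and peptide at 100 nM). Donor and acceptor beads were then added, and plates were equilibrated at least 1 h before reading. IC50 values were fitted with a four-parameter logistic model.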
In general terms: In Alpha technology, singlet oxygen from a donor bead excites a nearby acceptor bead.

The next experiment addresses T2, BRD4 BD2 (Homo sapiens, UniProt O60885).
T2 construct: made in house
Put plainly: AlphaScreen binding assay, BRD4 Bromodomain 2. In a few lines:
as §1

For another experiment, the system named is MV4-11 cells. Put plainly: Oncology cell growth assay (3-day proliferation, CellTiter-Glo). The experiment is classed as cell-based. As to conditions: Homo sapiens, MV4-11, 72 h, AML cell line MV4-11, 72 hours, compounds grouped by IC50 range, read-out: MV4-11 IC50 (inhibition of proliferation, gIC50). The method, boiled down:
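Compounds were serially diluted 3-fold in DMSO, giving final well concentrations from 10 down to 0.0045 μM. MV4-11 cells were then seeded at 3000 cells/well in RPMI 1640 with 10% FBS and incubated 72 hours. CellTiter-Glo signal was measured and gIC50 obtained by four-parameter logistic regression.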

For the compound `CC(=O)N1c2ccc(-c3cnn(C4CCCS(=O)(=O)C4)c3)cc2N(C(=O)OC2CCCC2)C[C@@H]1C` (stereo partly drawn) [Example I-1148], the pIC50 on BRD4 BD1 is 6.00 to 7.00; at BRD4 BD2, > 7.30; with MV4-11 cells it was 6.30 to 7.00.

Take `CC(=O)N1c2ccc(-c3cnn(CCO)c3)cc2N(C(=O)OCCC(F)(F)F)C[C@@H]1C` [Example I-81, (S)-3,3,3-trifluoropropyl 4-acetyl-7-(1-(2-hydroxyethyl)-1H-pyrazol-4-yl)-3-methyl-3,4-dihydroquinoxaline-1(2H)-carboxylate]: the figures for the pIC50 on BRD4 BD1, on BRD4 BD2 and in the experiment on MV4-11 cells were 5.00 to 6.00, < 6.30 and 6.30 to 7.00, respectively.

`CC(=O)N1c2ccc(-c3cnn(CCO)c3)cc2N(C(=O)OC(CF)CF)C[C@@H]1C` [Example I-83, (S)-1,3-difluoropropan-2-yl 4-acetyl-7-(1-(2-hydroxyethyl)-1H-pyrazol-4-yl)-3-methyl-3,4-dihydroquinoxaline-1 (2H)-carboxylate]: the pIC50 on BRD4 BD1 was 6.00 to 7.00; at BRD4 BD2, 6.30 to 7.30; with MV4-11 cells, < 6.30.

`COC(=O)N1c2ccc(-c3cnn(CCC#N)c3)cc2N(C(=O)Oc2ccc(F)cc2)C[C@@H]1C` [Example I-1025]: the pIC50 is 6.00 to 7.00 at BRD4 BD1, > 7.30 on BRD4 BD2 and < 6.30 in the experiment with MV4-11 cells.

Take `CC(=O)N1c2ccc(-c3ccc(S(=O)(=O)C(C)C)cc3)cc2N(C(=O)OC2CCCCC2)C[C@@H]1C` [Example I-1231]: the pIC50 at BRD4 BD1 is 6.00 to 7.00; on BRD4 BD2 it was 6.30 to 7.30; in the experiment on MV4-11 cells, 6.30 to 7.00.

With `CC(=O)N1c2ccc(-c3cnn(Cc4cc(C)on4)c3)cc2N(C(=O)OC(C)C)C[C@@H]1C` [Example I-665], the values for the pIC50 at BRD4 BD1, at BRD4 BD2 and with MV4-11 cells were 6.00 to 7.00, 6.30 to 7.30 and 6.30 to 7.00, respectively.

`CC(=O)N1c2cc(Br)c(-c3cnn(C4CC4)c3)cc2N(C(=O)OC(C)C)C[C@@H]1C` [Example I-209, Isopropyl (S)-4-acetyl-6-bromo-7-(1-cyclopropyl-1H-pyrazol-4-yl)-3-methyl-3,4-dihydroquinoxaline-1(2H)-carboxylate]: the pIC50 at BRD4 BD1 is 5.00 to 6.00; on BRD4 BD2, < 6.30; in the experiment with MV4-11 cells, < 6.30.

Consider `CC(=O)N1c2ccc(-c3cnn(C4CC4)c3)cc2N(C(=O)C2CC2)C[C@@H]1C` [Example I-8, (S)-1-(4-(cyclopropanecarbonyl)-6-(1-cyclopropyl-1H-pyrazol-4-yl)-2-methyl-3,4-dihydroquinoxalin-1(2H)-yl)ethanone], for which the pIC50 was 6.00 to 7.00 at BRD4 BD1, > 7.30 on BRD4 BD2 and 6.30 to 7.00 in the experiment with MV4-11 cells.

As for `CCOC(=O)N1C[C@H](C)N(C(C)=O)c2ccc(-c3cccc(S(N)(=O)=O)c3)cc21` [Example I-1041], the pIC50 is 5.00 to 6.00 on BRD4 BD1, 6.30 to 7.30 on BRD4 BD2 and 6.30 to 7.00 with MV4-11 cells.

For the compound `COC(=O)c1ccc(OC(=O)N2C[C@H](C)N(C(C)=O)c3ccc(-c4ccc(S(C)(=O)=O)cc4)cc32)cc1` [Example I-229], the pIC50 at BRD4 BD1 is 6.00 to 7.00; at BRD4 BD2, > 7.30; in the experiment with MV4-11 cells, > 7.00.

With `CC(C)OC(=O)N1C[C@H](C)N(C(=O)C2CC2)c2ccc(-c3cn(C)nn3)cc21` [Example I-482], the pIC50 was 6.00 to 7.00 on BRD4 BD1, < 6.30 at BRD4 BD2 and < 6.30 in the experiment on MV4-11 cells.

With `CC(=O)N1c2ccc(-c3cnn(CC4CCOCC4)c3)cc2N(C(=O)C2CC2)C[C@@H]1C` [Example I-657], the pIC50 is 6.00 to 7.00 on BRD4 BD1, 6.30 to 7.30 at BRD4 BD2 and 6.30 to 7.00 in the experiment on MV4-11 cells.

As to `CC(=O)N1c2ccc(-c3ccc(S(=O)(=O)N4CCCC4)cc3)cc2N(C(=O)c2ccco2)C[C@@H]1C` [Example I-286], the pIC50 was 6.00 to 7.00 at BRD4 BD1, < 6.30 on BRD4 BD2 and > 7.00 with MV4-11 cells.

For the compound `CC(=O)N1c2ccc(-c3ccc4c(c3)CCCN4S(C)(=O)=O)cc2N(C(=O)C2CCC2)C[C@@H]1C` [Example I-1158], the pIC50 at BRD4 BD1 was 6.00 to 7.00; on BRD4 BD2 it was 6.30 to 7.30; in the experiment on MV4-11 cells, < 6.30.

For the origin of these results see patent publication US10703764B2, “Benzopiperazine compositions as BET bromodomain inhibitors” (FORMA Therapeutics, Inc., priority 2013, dated 2020).
